Structures can show the parent of a compound that is named as a salt. Where two headings read alike, the source gives them in different places.
How the values were obtained:
[1] = system: mice with contusive T9 moderate SCI (IH); settings: Dex 100 μg/kg one hour post-trauma, IH model, ambient 24.5° C.
Description: Contusive spinal cord injury: Adult female C57BL/6 mice (8 weeks old, 18-22 g) were purchased from The Jackson Laboratory (Bar Harbor, ME). Depending on different injury model, mice were either randomly divided into three groups: sham, SCI+heating pad, and SCI+Dex for LISA injury model, or were randomly divided into four groups: sham, SCI+heating pad, SCI+Dex, and SCI+Conventional hypothermia for Infinite Horizons (IH) model. […] All animal care, handling, and surgery were performed in accordance with the Guide for the Care and Use of Laboratory Animals (National Research Council) and the Guidelines of the Institutional Animal Care and Use Committee of Indiana University School of Medicine. Spinal cord contusion was made at the thoracic (T9) vertebral level. After avertin anesthesia, animals will be placed on a thermometer-controlled heating pad for the duration of recovery (except Dex and conventional hypothermia treated group). For LISA injury model, C57/6J mice were anesthetized. […] The T9 contusion injury was performed using a LISA impactor, where the injury level was determined using a laser sensor. After injury confirmation, the surgical area is sutured, the animal is hydrated and monitored for post-operative care, including analgesia and bladder expression. […]

[2] = system: mice with moderate T9 contusive SCI; settings: n=10; for foot fall rate: Dex+SCI
From the text: In addition to Rotarod test, Grid walk test further was ran twice at […] post-injury to assess hindlimb movements involved in sensorimotor functions, such as precise stepping, coordination and accurate placement of the paw. A one-foot drop error was counted when the hindlimb paw was entirely dropping through the grid with all toes and heel below the grid surface.
Grid-walking: The grid-walking test assesses the ability of a mouse to place its paws on the rungs of a grid accurately during spontaneous exploration. An elevated metal rectangle grid (12×36 inch2 with each grid cell 0.5×0.5 inch2) and 16 inches above a table top was used for the hindlimb drop error test. Each mouse was placed in the center of the grid for 3 min. A one-foot drop error was counted when the hindlimb paw was entirely dropping through the grid with all toes and heel below the grid surface. The total number of foot drop errors and total number of steps were recorded by video. Two observers who were blinded to the experiment analyzed the video and counted the steps. The grid-walking test was performed on the day before surgery and on days 21 and 35 post-SCI. Only those mice with consistent plantar stepping (BMS≥5) were tested on the grid.

[3] = system: SMI31-positive axons in white matter; settings: FIG. 8B
Description: (§1) We further counted the number of NeuN-positive neurons in each section. […] Therefore, SMI31, an axon maker immunostaining was performed to evaluate the axons in spared white matter.
(§2) Immunofluorescent Staining: Immunofluorescent staining was carried out according to our previous reports. In brief, sections on the slides were rinsed in PBS 3 times (5 minutes each) and incubated in blocking buffer (0.1% Triton X-100, 1% bovine serum albumin, and 5% normal serum in PBS) for 1 hour at room temperature. Then, primary antibodies were added to blocking buffer and incubated with sections overnight at 4° C. After 3 washes with PBS (5 minutes each), sections were incubated with the secondary antibody for 1 hour at room temperature and then treated with 4′,6-Diamidino-2-phenylindole (DAPI) for 2 minutes. Finally, sections were washed 3 times with PBS (5 minutes each), dried, and mounted using Fluoromount G (Southern Biotech, Birmingham, AL, USA). Primary antibodies and their final concentrations were as follows: NeuN antibody (1:500, chicken, Abcam, ab134014), SMI31 antibody (1:1000, mouse, Millipore, NE1022), and GFAP antibody (1:1000, mouse, Sigma, G3893).

NeuN-positive neurons = settings: after SCI, FIG. 8A
Description: as §1, §2

[4] = system: c-fos positive neurons in raphe nuclei; settings: during urodynamic recording
From the text: During the urodynamic recording, brain stem neurons controlling the urination within the spared supraspinal circuitry were activated and expressed c-fos.

[5] = system: mice with moderate T9 contusive SCI
From the text: Therefore, we compared the functional outcomes of Dex treated SCI mice with SCI only mice using multiple behavior tests post-trauma. C57 BL/6 wild type mice (female) at age of 8 weeks were randomly assigned into three different groups, including sham, SCI, and SCI+Dex. Then the moderate T9 contusive SCI was introduced in two injury groups using LISA injury model. Mice in sham and SCI only group were put on the heating pad to maintain their normal body temperature, while mice in Dex treated group were exposed in ambient room temperature of 24.5° C. for hypothermia during whole surgery and recovery process. One hour after injury, one dose of Dex (100 μg/kg) was IP administrated to rapidly induce early moderate to modest therapeutic hypothermia (30-32° C.). All mice body temperature were measured by rectal probe every 30 minutes to monitor the hypothermia after surgery till the mice fully waked up and back to normothermia. After SCI injury, at different time, multiple behavioral tests, were applied to examine functional outcomes and the potential neuroprotective effects of Dex treatment (FIG. 3A). The Basso Mouse Scale (BMS) was a reliable measurement that developed to examine the locomotion in spinal cord injured mice. It has been widely used in mouse functional evaluation and serves as an indicator of recovery. This test examines different locomotor categories such as paralysis, weight support, stepping, trunk stability, and so on. The scores ranged from 9 to 0 that represent normal movement to complete paralysis, respectively. Three days prior surgery, the BMS scores of all mice in different groups were measured. Only mice with 9 score were kept. The mice with score lower than 9 were replaced to make sure mice in different groups had same baseline of locomotion. After surgery, the BMS score was repeatedly measured at 3 days, 1 week, 2 weeks, 3 weeks, 4 weeks, 5 weeks, and 6 weeks (FIG. 3B).
Contusive spinal cord injury: Adult female C57BL/6 mice (8 weeks old, 18-22 g) were purchased from The Jackson Laboratory (Bar Harbor, ME). Depending on different injury model, mice were either randomly divided into three groups: sham, SCI+heating pad, and SCI+Dex for LISA injury model, or were randomly divided into four groups: sham, SCI+heating pad, SCI+Dex, and SCI+Conventional hypothermia for Infinite Horizons (IH) model. […] All animal care, handling, and surgery were performed in accordance with the Guide for the Care and Use of Laboratory Animals (National Research Council) and the Guidelines of the Institutional Animal Care and Use Committee of Indiana University School of Medicine. Spinal cord contusion was made at the thoracic (T9) vertebral level. After avertin anesthesia, animals will be placed on a thermometer-controlled heating pad for the duration of recovery (except Dex and conventional hypothermia treated group). For LISA injury model, C57/6J mice were anesthetized. A midline skin incision was made to expose the thoracolumbar spine, followed by the removal of the T9 spinous process and lamina to expose the dura mater. The displacement was set to be 0.5 mm. The T9 contusion injury was performed using a LISA impactor, where the injury level was determined using a laser sensor. After injury confirmation, the surgical area is sutured, the animal is hydrated and monitored for post-operative care, including analgesia and bladder expression. For IH model, a 1-inch skin incision was placed on the dorsal midline, musculature was retracted, and then the spinal column was visualized and placed into a stabilizer with two clamps retracting the spinous processes of the vertebrae directly surrounding the injury site. A laminectomy was performed to expose the dura.

[6] = system: mice with contusive T9 moderate SCI (IH); settings: end of BMS test, IH model
From the text: The scores ranged from 9 to 0 that represent normal movement to complete paralysis, respectively.

SMILES: Cc1cccc([C@H](C)c2cnc[nH]2)c1C [Dex, dexmedetomidine hydrochloride]
- duration of moderate hypothermia [1]: 16 h
- foot fall rate ([2]; 4 weeks post-injury): 17.3±5.1%
- foot fall rate ([2]; 6 weeks post-injury): 12.9±3.6%
- recovery of sensorimotor functions (Grid Walk) ([2]; FIG. 3D, female): better recovery of sensorimotor functions
- SMI31 signal (intensity and area) vs. SCI [3]: significantly preserved more
- surviving NeuN-positive neurons compared to none-treatment group (NeuN-positive neurons): about 10 times
- c-fos positive neurons in raphe nuclei vs. SCI group [4]: Significantly more c-fos positive neurons
- locomotion recovery (BMS) compared to none-treatment SCI group ([5]; FIG. 3B, female, n=10): better locomotion recovery
- improvement of locomotor function in BMS test ([5]; compared with about 25% for hypothermia alone (meta-analysis)): 70%
- BMS score compared to SCI only group ([5]; day 3 post-injury, Dex 100 μg/kg IP one hour after injury): did not show the significant difference
- average BMS score ([5]; one week after surgery, Dex 100 μg/kg IP): ~5
- increase of BMS score compared to SCI only group ([5]; week 6 (end of test)): over 65%
- BMS score ([5]; week 6 (end of test), Dex 100 μg/kg IP): about 7.8
- BMS increase rate vs. SCI [6]: 56%
- BMS score ([6]; SCI+Dex, n=10): 7.13±0.48
